From PubChem BioAssay AID248 (DTP/NCI, 2004)
Values joined by “and” are separate entries in the source; they are usually repeats but may differ in a detail not shown here. Equal entries are not always repeated. Toxic doses and inconclusive results are not listed. Rule as the data show it: active = T/C of 150% or more; inactive = T/C below 125%.

Tested on: L1210 leukemia ip in BDF1 mice, survival T/C
Assay: NCI In Vivo Anticancer Drug Screen. Data for tumor model L1210 Leukemia (intraperitoneal) in B6D2F1 (BDF1) mice
Conditions: higher = longer survival
Procedure, shortened: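 In this screen, tumor-bearing mice given compound are compared to those given vehicle, and their survival values are reported as a treated-to-control quotient.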

[1] = endpoint: mean survival time, dose: 100.0 mg/kg/injection, schedule: Q01DX001 (ip), vehicle: carboxymethylcellulose (CMC)
[2] = endpoint: mean survival time, dose: 200.0 mg/kg/injection, schedule: Q01DX001 (ip), vehicle: carboxymethylcellulose (CMC)
[3] = endpoint: mean survival time, dose: 400.0 mg/kg/injection, schedule: Q01DX001 (ip), vehicle: carboxymethylcellulose (CMC)
[4] = endpoint: mean survival time, dose: 100.0 mg/kg/injection, schedule: Q01DX001 (ip), vehicle: saline
[5] = endpoint: mean survival time, dose: 400.0 mg/kg/injection, schedule: Q01DX001 (ip), vehicle: saline
[6] = endpoint: mean survival time, dose: 100.0 mg/kg/injection, schedule: Q04DX003 (ip), vehicle: saline
[7] = endpoint: mean survival time, dose: 50.0 mg/kg/injection, schedule: Q01DX001 (ip), vehicle: saline

Measured: T/C

CS(=O)(=O)Oc1nn2c(OS(C)(=O)=O)nnc2s1
inactive: endpoint: mean survival time, dose: 5.0 mg/kg/injection, schedule: Q01DX001 (ip), vehicle: saline 104 % of control | endpoint: mean survival time, dose: 8.8 mg/kg/injection, schedule: Q01DX001 (ip), vehicle: saline 101 % of control and 90 % of control | endpoint: mean survival time, dose: 10.0 mg/kg/injection, schedule: Q01DX001 (ip), vehicle: saline 109 % of control | endpoint: mean survival time, dose: 13.3 mg/kg/injection, schedule: Q01DX001 (ip), vehicle: saline 98 % of control and 110 % of control | endpoint: mean survival time, dose: 20.0 mg/kg/injection, schedule: Q01DX001 (ip), vehicle: saline 98 % of control and 104 % of control | endpoint: mean survival time, dose: 30.0 mg/kg/injection, schedule: Q01DX001 (ip), vehicle: saline 104 % of control

[O-]c1n[n+](C2CCCCC2)no1
inactive: endpoint: mean survival time, dose: 5.0 mg/kg/injection, schedule: Q01DX001 (ip), vehicle: other 106 % of control | endpoint: mean survival time, dose: 10.0 mg/kg/injection, schedule: Q01DX001 (ip), vehicle: other 101 % of control

CC(=O)Oc1ccc(Br)cc1C=O
inactive: [1] 100 % of control | [2] 94 % of control | [3] 103 % of control

C1CCC2CC3CCCCC3CC2C1 (stereo unspecified)
inactive: [4] 90 % of control | [5] 102 % of control

CC(C)Oc1c(NCCO)c2cc(Cl)ccc2oc1=O
inactive: endpoint: mean survival time, dose: 100.0 mg/kg/injection, schedule: Q04DX002 (ip), vehicle: Klucel (hydroxypropylcellulose) (HPC) 103 % of control | endpoint: mean survival time, dose: 200.0 mg/kg/injection, schedule: Q04DX002 (ip), vehicle: Klucel (hydroxypropylcellulose) (HPC) 106 % of control | endpoint: mean survival time, dose: 400.0 mg/kg/injection, schedule: Q04DX002 (ip), vehicle: Klucel (hydroxypropylcellulose) (HPC) 106 % of control

CSC1SCC2C(=O)N(C)C(C(C)C)C(=O)OCC(NC(=O)c3cnc4ccccc4n3)C(=O)NC(C)C(=O)N(C)C1C(=O)N(C)C(C(C)C)C(=O)OCC(NC(=O)c1cnc3ccccc3n1)C(=O)NC(C)C(=O)N2C (stereo unspecified)
inactive: endpoint: mean survival time, dose: 0.4 micrograms/kg/injection, schedule: Q01DX009 (ip), vehicle: saline with Tween-80 97 % of control | endpoint: mean survival time, dose: 0.9 micrograms/kg/injection, schedule: Q01DX009 (ip), vehicle: saline with Tween-80 102 % of control | endpoint: mean survival time, dose: 1.9 micrograms/kg/injection, schedule: Q01DX009 (ip), vehicle: saline with Tween-80 97 % of control | endpoint: mean survival time, dose: 3.8 micrograms/kg/injection, schedule: Q01DX009 (ip), vehicle: saline with Tween-80 102 % of control | endpoint: mean survival time, dose: 7.5 micrograms/kg/injection, schedule: Q01DX009 (ip), vehicle: saline with Tween-80 115 % of control | endpoint: mean survival time, dose: 15.0 micrograms/kg/injection, schedule: Q01DX009 (ip), vehicle: saline with Tween-80 117 % of control

CC12CC(O)C3c4ccc(O)cc4CCC3C1CCC2=O (stereo unspecified)
inactive: endpoint: mean survival time, dose: 50.0 mg/kg/injection, schedule: Q01DX001 (ip), vehicle: carboxymethylcellulose (CMC) 106 % of control | [1] 98 % of control | [2] 104 % of control | [3] 104 % of control

CC(=O)Nc1cc2ccc3ccccc3c2c2ccccc12
inactive: endpoint: mean survival time, dose: 75.0 mg/kg/injection, schedule: Q04DX002 (ip), vehicle: Klucel (hydroxypropylcellulose) (HPC) 102 % of control | endpoint: mean survival time, dose: 150.0 mg/kg/injection, schedule: Q04DX002 (ip), vehicle: Klucel (hydroxypropylcellulose) (HPC) 97 % of control | endpoint: mean survival time, dose: 300.0 mg/kg/injection, schedule: Q04DX002 (ip), vehicle: Klucel (hydroxypropylcellulose) (HPC) 97 % of control

C[N+]1(C)CCC(OC(=O)C(O)(c2ccccc2)C2CCCC2)C1 (stereo unspecified)
inactive: endpoint: mean survival time, dose: 100.0 mg/kg/injection, schedule: Q04DX003 (ip), vehicle: saline with Tween-80 100 % of control

O=C(CI)Nc1cccc(NC(=O)C(=O)O)c1
inactive: endpoint: mean survival time, dose: 20.0 mg/kg/injection, schedule: Q04DX003 (ip), vehicle: Klucel (hydroxypropylcellulose) (HPC) 95 % of control | endpoint: mean survival time, dose: 40.0 mg/kg/injection, schedule: Q04DX003 (ip), vehicle: Klucel (hydroxypropylcellulose) (HPC) 101 % of control

NCc1ccccc1[N+](=O)[O-]
inactive: [6] 104 % of control | endpoint: mean survival time, dose: 200.0 mg/kg/injection, schedule: Q04DX003 (ip), vehicle: saline 104 % of control | endpoint: mean survival time, dose: 400.0 mg/kg/injection, schedule: Q04DX003 (ip), vehicle: saline 102 % of control

C=CCc1cccc(C2N(Cc3ccccc3OC)CCCN2Cc2ccccc2OC)c1O
inactive: [7] 103 % of control | [4] 100 % of control | endpoint: mean survival time, dose: 200.0 mg/kg/injection, schedule: Q01DX001 (ip), vehicle: saline 97 % of control | [5] 97 % of control

COc1cc([C@@H]2c3cc4c(cc3C[C@H]3COC(=O)[C@@H]32)OCO4)cc(OC)c1OC
inactive: endpoint: mean survival time, dose: 3.12 mg/kg/injection, schedule: Q01DX009 (ip), vehicle: saline 94 % of control | endpoint: mean survival time, dose: 6.25 mg/kg/injection, schedule: Q01DX009 (ip), vehicle: saline 109 % of control | endpoint: mean survival time, dose: 12.5 mg/kg/injection, schedule: Q01DX001 (ip), vehicle: saline 115 % of control | endpoint: mean survival time, dose: 12.5 mg/kg/injection, schedule: Q01DX009 (ip), vehicle: saline 110 % of control | endpoint: mean survival time, dose: 25.0 mg/kg/injection, schedule: Q01DX001 (ip), vehicle: saline 115 % of control | endpoint: mean survival time, dose: 25.0 mg/kg/injection, schedule: Q01DX009 (ip), vehicle: saline 116 % of control | endpoint: mean survival time, dose: 45.0 mg/kg/injection, schedule: Q01DX001 (ip), vehicle: saline 123 % of control | endpoint: mean survival time, dose: 50.0 mg/kg/injection, schedule: Q01DX001 (ip), vehicle: other 109 % of control | endpoint: mean survival time, dose: 50.0 mg/kg/injection, schedule: Q01DX001 (ip), vehicle: saline with Tween-80 110 % of control | [7] 111 % of control and 117 % of control | endpoint: mean survival time, dose: 50.0 mg/kg/injection, schedule: Q04DX003 (ip), vehicle: saline with Tween-80 116 % of control | endpoint: mean survival time, dose: 100.0 mg/kg/injection, schedule: Q01DX001 (ip), vehicle: other 116 % of control | endpoint: median survival time, dose: 2.5 mg/kg/injection, schedule: Q01DX009 (ip), vehicle: saline 111 % of control | endpoint: median survival time, dose: 5.0 mg/kg/injection, schedule: Q01DX009 (ip), vehicle: saline 122 % of control | endpoint: median survival time, dose: 10.0 mg/kg/injection, schedule: Q01DX009 (ip), vehicle: saline 88 % of control

CCOC(=O)C(OCc1ccccc1)(C(=O)NCCc1ccc(OC)c(OC)c1)C(C)C (stereo unspecified)
inactive: endpoint: mean survival time, dose: 25.0 mg/kg/injection, schedule: Q01DX009 (ip), vehicle: other 108 % of control | endpoint: mean survival time, dose: 50.0 mg/kg/injection, schedule: Q01DX009 (ip), vehicle: other 108 % of control | endpoint: mean survival time, dose: 100.0 mg/kg/injection, schedule: Q01DX009 (ip), vehicle: other 103 % of control | endpoint: mean survival time, dose: 200.0 mg/kg/injection, schedule: Q01DX009 (ip), vehicle: other 99 % of control | endpoint: mean survival time, dose: 400.0 mg/kg/injection, schedule: Q01DX009 (ip), vehicle: other 91 % of control

Cc1cc(Cl)c2ccccc2[n+]1C
inactive: [6] 98 % of control

CCC1C(=O)N(c2ccc(S(=O)(=O)O)cc2)N=C1C (stereo unspecified)
inactive: endpoint: mean survival time, dose: 100.0 mg/kg/injection, schedule: Q04DX003 (ip), vehicle: Klucel (hydroxypropylcellulose) (HPC) 95 % of control | endpoint: mean survival time, dose: 200.0 mg/kg/injection, schedule: Q04DX003 (ip), vehicle: Klucel (hydroxypropylcellulose) (HPC) 95 % of control

Cc1cc(C)c(N(C)C(=O)CCC(=O)O)c(C)c1Br
inactive: endpoint: mean survival time, dose: 100.0 mg/kg/injection, schedule: Q01DX001 (ip), vehicle: Klucel (hydroxypropylcellulose) (HPC) 97 % of control | endpoint: mean survival time, dose: 100.0 mg/kg/injection, schedule: Q01DX009 (ip), vehicle: Klucel (hydroxypropylcellulose) (HPC) 93 % of control | endpoint: mean survival time, dose: 200.0 mg/kg/injection, schedule: Q01DX001 (ip), vehicle: Klucel (hydroxypropylcellulose) (HPC) 97 % of control | endpoint: mean survival time, dose: 200.0 mg/kg/injection, schedule: Q01DX009 (ip), vehicle: Klucel (hydroxypropylcellulose) (HPC) 93 % of control | endpoint: mean survival time, dose: 400.0 mg/kg/injection, schedule: Q01DX001 (ip), vehicle: Klucel (hydroxypropylcellulose) (HPC) 104 % of control

Cc1cc(NC(=O)c2cccc(S(=O)(=O)F)c2)cc(C)c1OCc1nc(N)nc(N)c1-c1ccc(Cl)c(Cl)c1
inactive: endpoint: mean survival time, dose: 100.0 mg/kg/injection, schedule: Q01DX001 (ip), vehicle: saline with Tween-80 97 % of control | endpoint: mean survival time, dose: 200.0 mg/kg/injection, schedule: Q01DX001 (ip), vehicle: saline with Tween-80 88 % of control | endpoint: mean survival time, dose: 400.0 mg/kg/injection, schedule: Q01DX001 (ip), vehicle: saline with Tween-80 101 % of control

CC(C)(C)C(=O)Nc1ccc(Cl)cc1C(=O)c1ccccc1
inactive: endpoint: mean survival time, dose: 100.0 mg/kg/injection, schedule: Q01DX009 (ip), vehicle: saline with Tween-80 92 % of control and 110 % of control | endpoint: mean survival time, dose: 100.0 mg/kg/injection, schedule: Q04DX002 (ip), vehicle: saline with Tween-80 93 % of control and 98 % of control | endpoint: mean survival time, dose: 200.0 mg/kg/injection, schedule: Q01DX009 (ip), vehicle: saline with Tween-80 96 % of control and 100 % of control | endpoint: mean survival time, dose: 200.0 mg/kg/injection, schedule: Q04DX002 (ip), vehicle: saline with Tween-80 93 % of control and 107 % of control | endpoint: mean survival time, dose: 400.0 mg/kg/injection, schedule: Q01DX009 (ip), vehicle: saline with Tween-80 92 % of control and 95 % of control | endpoint: mean survival time, dose: 400.0 mg/kg/injection, schedule: Q04DX002 (ip), vehicle: saline with Tween-80 107 % of control and 87 % of control
